Measurements as given in the supplement of paper PMC11061612.

Tests used:
SN-38 = compound: CCc1c2c(nc3ccc(O)cc13)-c1cc3c(c(=O)n1C2)COC(=O)[C@]3(O)CC [SN-38]; details: max 0.3 µM
Summary of the method: (§1)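 Following 24 hours at 37°C and 5% CO2, cancer cell lines in 1536-well plates with 7.5 μl DMEM/F12 or RPMI and 10% FBS were dosed for 72 hours, final DMSO typically being 0.2%. CellTiter-Glo 2.0 luminescence, scaled between blank-well and DMSO-well means, gave the viability readout. Dose responses were fitted to a two-parameter logistic curve with a non-linear mixed effects model, and the single-agent IC50 was derived from this fit.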

Palbociclib = compound: CC(=O)c1c(C)c2cnc(Nc3ccc(N4CCNCC4)cn3)nc2n(C2CCCC2)c1=O [Palbociclib]; details: max 10 µM
Summary of the method: as §1

Venetoclax = compound: CC1(C)CCC(CN2CCN(c3ccc(C(=O)NS(=O)(=O)c4ccc(NCC5CCOCC5)c([N+](=O)[O-])c4)c(Oc4cnc5[nH]ccc5c4)c3)CC2)=C(c2ccc(Cl)cc2)C1 [Venetoclax]; details: max 1 µM
Summary of the method: as §1

MK-2206 = compound: NC1(c2ccc(-c3nc4ccn5c(=O)[nH]nc5c4cc3-c3ccccc3)cc2)CCC1 [MK-2206]; details: max 10 µM
Summary of the method: as §1

Selumetinib = compound: Cn1cnc2c(F)c(Nc3ccc(Br)cc3Cl)c(C(=O)NOCCO)cc21 [Selumetinib]; details: max 10 µM
Summary of the method: as §1

AZD1775 = compound: C=CCn1c(=O)c2cnc(Nc3ccc(N4CCN(C)CC4)cc3)nc2n1-c1cccc(C(C)(C)O)n1 [AZD1775]; details: max 3 µM
Summary of the method: as §1

AZD1390 = compound: CC(C)n1c(=O)n(C)c2cnc3cc(F)c(-c4ccc(OCCCN5CCCCC5)nc4)cc3c21 [AZD1390]; details: max 0.3 µM
Summary of the method: as §1

Crizotinib = compound: C[C@@H](Oc1cc(-c2cnn(C3CCNCC3)c2)cnc1N)c1c(Cl)ccc(F)c1Cl [Crizotinib]; details: max 10 µM
Summary of the method: as §1

Savolitinib = compound: C[C@@H](c1ccc2nccn2c1)n1nnc2ncc(-c3cnn(C)c3)nc21 [Savolitinib]; details: max 1 µM
Summary of the method: as §1

SG3199 = compound: CC1=CN2[C@@H](C1)C=NC3=CC(=C(C=C3C2=O)OC)OCCCCCOC4=C(C=C5C(=C4)N=C[C@@H]6CC(=CN6C5=O)C)OC [SG3199]; details: max 0.001 µM
Summary of the method: as §1

AZD5991 = compound: Cc1c2c(nn1C)CSCc1cc(n(C)n1)CSc1cc(c3ccccc3c1)OCCCc1c(C(=O)O)n(C)c3c-2c(Cl)ccc13 [AZD5991]; details: max 1 µM
Summary of the method: as §1

Trametinib = compound: CC(=O)Nc1cccc(-n2c(=O)n(C3CC3)c(=O)c3c(Nc4ccc(I)cc4F)n(C)c(=O)c(C)c32)c1 [Trametinib]; details: max 1 µM
Summary of the method: as §1

Lapatinib = compound: CS(=O)(=O)CCNCc1ccc(-c2ccc3ncnc(Nc4ccc(OCc5cccc(F)c5)c(Cl)c4)c3c2)o1 [Lapatinib]; details: max 10 µM
Summary of the method: as §1

AZD6738 = compound: C[C@@H]1COCCN1C2=NC(=NC(=C2)C3(CC3)[S@](=N)(=O)C)C4=C5C=CNC5=NC=C4 [AZD6738]; details: max 10 µM
Summary of the method: as §1

Olaparib = compound: O=C(c1cc(Cc2n[nH]c(=O)c3ccccc23)ccc1F)N1CCN(C(=O)C2CC2)CC1 [Olaparib]; details: max 10 µM
Summary of the method: as §1

Prexasertib = compound: COc1cccc(OCCCN)c1-c1cc(Nc2cnc(C#N)cn2)n[nH]1 [Prexasertib]; details: max 1 µM
Summary of the method: as §1

Gefitinib = compound: COc1cc2ncnc(Nc3ccc(F)c(Cl)c3)c2cc1OCCCN1CCOCC1 [Gefitinib]; details: max 10 µM
Summary of the method: as §1

Capivasertib = compound: C1CN(CCC1(C(=O)N[C@@H](CCO)C2=CC=C(C=C2)Cl)N)C3=NC=NC4=C3C=CN4 [Capivasertib]; details: max 10 µM
Summary of the method: as §1

AZD2811 = compound: CCN(CCO)CCCOc1ccc2c(Nc3cc(CC(=O)Nc4cccc(F)c4)[nH]n3)ncnc2c1 [AZD2811]; details: max 1 µM
Summary of the method: as §1

AZD0156 = compound: CN(C)CCCOc1ccc(-c2ccc3ncc4c(c3c2)n(C2CCOCC2)c(=O)n4C)cn1 [AZD0156]; details: max 3 µM
Summary of the method: as §1

AZD5153 = compound: COc1nnc2ccc(N3CCC(c4ccc(OCCN5CCN(C)C(=O)[C@H]5C)cc4)CC3)nn12 [AZD5153]; details: max 1 µM
Summary of the method: as §1

Taselisib = compound: Cc1nc(-c2cn3c(n2)-c2ccc(-c4cnn(C(C)(C)C(N)=O)c4)cc2OCC3)n(C(C)C)n1 [Taselisib]; details: max 10 µM
Summary of the method: as §1

Dasatinib = compound: CC1=C(C(=CC=C1)Cl)NC(=O)C2=CN=C(S2)NC3=CC(=NC(=N3)C)N4CCN(CC4)CCO [Dasatinib]; details: max 2 µM
Summary of the method: as §1

AZD7648 = compound: Cc1cc2ncnn2cc1Nc1ncc2c(n1)n(C1CCOCC1)c(=O)n2C [AZD7648]; details: max 10 µM
Summary of the method: as §1

AZD4320 = compound: CN(CC[C@H](CSC1=CC=CC=C1)NC2=C(C=C(C=C2)S(=O)(=O)NC(=O)C3=CC=C(C=C3)N4CCC(CC4)[C@H](C5=CC=CC=C5C6=CC=C(C=C6)Cl)O)S(=O)(=O)C(F)(F)F)CCO [AZD4320]; details: max 1 µM
Summary of the method: as §1

AZD8186 = compound: C[C@@H](Nc1cc(F)cc(F)c1)c1cc(C(=O)N(C)C)cc2c(=O)cc(N3CCOCC3)oc12 [AZD8186]; details: max 3 µM
Summary of the method: as §1

Alisertib = compound: COc1cc(Nc2ncc3c(n2)-c2ccc(Cl)cc2C(c2c(F)cccc2OC)=NC3)ccc1C(=O)O [Alisertib]; details: max 10 µM
Summary of the method: as §1

Doxorubicin = compound: COc1cccc2c1C(=O)c1c(O)c3c(c(O)c1C2=O)C[C@@](O)(C(=O)CO)C[C@@H]3O[C@H]1C[C@H](N)[C@H](O)[C@H](C)O1 [Doxorubicin]; details: max 1 µM
Summary of the method: as §1

Cell Line | IC50, cell viability 72 h (SN-38) [nM] | IC50, cell viability 72 h (Palbociclib) [nM] | IC50, cell viability 72 h (Venetoclax) [nM] | IC50, cell viability 72 h (MK-2206) [nM] | IC50, cell viability 72 h (Selumetinib) [nM] | IC50, cell viability 72 h (AZD1775) [nM] | IC50, cell viability 72 h (AZD1390) [nM] | IC50, cell viability 72 h (Crizotinib) [nM] | IC50, cell viability 72 h (Savolitinib) [nM] | IC50, cell viability 72 h (SG3199) [nM] | IC50, cell viability 72 h (AZD5991) [nM] | IC50, cell viability 72 h (Trametinib) [nM] | IC50, cell viability 72 h (Lapatinib) [nM] | IC50, cell viability 72 h (AZD6738) [nM] | IC50, cell viability 72 h (Olaparib) [nM] | IC50, cell viability 72 h (Prexasertib) [nM] | IC50, cell viability 72 h (Gefitinib) [nM] | IC50, cell viability 72 h (Capivasertib) [nM] | IC50, cell viability 72 h (AZD2811) [nM] | IC50, cell viability 72 h (AZD0156) [nM] | IC50, cell viability 72 h (AZD5153) [nM] | IC50, cell viability 72 h (Taselisib) [nM] | IC50, cell viability 72 h (Dasatinib) [nM] | IC50, cell viability 72 h (AZD7648) [nM] | IC50, cell viability 72 h (AZD4320) [nM] | IC50, cell viability 72 h (AZD8186) [nM] | IC50, cell viability 72 h (Alisertib) [nM] | IC50, cell viability 72 h (Doxorubicin) [nM]
NCI-H2052 (Mesothelioma) | 38.5 | > 10000 | > 1000 | > 10000 | > 10000 | > 3000 | > 300 | > 10000 | > 1000 | > 1 | > 1000 | > 1000 | > 10000 | > 10000 | > 10000 | 574 | > 10000 | > 10000 | > 1000 | > 3000 | > 1000 | 3670 | 1510 | > 10000 | > 1000 | > 3000 | > 10000 | > 1000
Hs-746T (Gastric Carcinoma) | > 300 | > 10000 | > 1000 | – | > 10000 | 1440 | > 300 | 683 | 40.9 | > 1 | > 1000 | 254 | > 10000 | 9890 | > 10000 | 66.4 | > 10000 | > 10000 | > 1000 | > 3000 | 833 | > 10000 | > 2000 | > 10000 | > 1000 | > 3000 | > 10000 | > 1000
NCI-H1568 (Lung Adenocarcinoma) | 297 | > 10000 | > 1000 | – | > 10000 | 1760 | > 300 | > 10000 | > 1000 | > 1 | > 1000 | > 1000 | > 10000 | > 10000 | > 10000 | 424 | > 10000 | > 10000 | > 1000 | > 3000 | > 1000 | > 10000 | > 2000 | > 10000 | > 1000 | > 3000 | > 10000 | > 1000
OV-56 (Ovarian Carcinoma) | 25 | > 10000 | > 1000 | – | > 10000 | > 3000 | > 300 | > 10000 | > 1000 | > 1 | > 1000 | > 1000 | > 10000 | > 10000 | > 10000 | 42.2 | > 10000 | > 10000 | > 1000 | > 3000 | > 1000 | > 10000 | > 2000 | > 10000 | > 1000 | > 3000 | > 10000 | > 1000
NCI-H2722 (Mesothelioma) | > 300 | > 10000 | > 1000 | – | > 10000 | > 3000 | > 300 | > 10000 | > 1000 | > 1 | > 1000 | > 1000 | > 10000 | > 10000 | > 10000 | > 1000 | > 10000 | > 10000 | > 1000 | > 3000 | > 1000 | > 10000 | > 2000 | > 10000 | > 1000 | > 3000 | > 10000 | > 1000
L-428 (Hodgkin's Lymphoma) | 46.9 | > 10000 | > 1000 | – | > 10000 | 429 | > 300 | > 10000 | > 1000 | > 1 | > 1000 | > 1000 | > 10000 | 5400 | > 10000 | 23.3 | > 10000 | > 10000 | > 1000 | > 3000 | 130 | > 10000 | > 2000 | > 10000 | 475 | > 3000 | > 10000 | 106
BFTC-909 (Kidney Carcinoma) | 38.7 | > 10000 | > 1000 | > 10000 | > 10000 | 579 | > 300 | > 10000 | > 1000 | > 1 | > 1000 | > 1000 | > 10000 | 3460 | > 10000 | 24.7 | > 10000 | 6100 | > 1000 | > 3000 | 909 | 3930 | > 2000 | > 10000 | > 1000 | > 3000 | 7720 | 616
